This note sets out measurements from ChEMBL document CHEMBL4431301, “The Medicinal Chemistry of Dengue Virus” (J Med Chem, 2016).

In data set [1] the test system is dengue virus type 2. As to the kind of experiment: Antiviral activity against Dengue virus 2 NGC infected in BHK21 cells after 48 hrs by plaque reduction assay. In kind it is functional, organism-based. To be noted: BHK-21, 48 h.
The nature of data set [2]: Cytotoxicity against human HuH7 cells assessed as cell viability after 48 hrs by CellTiter Glo assay. Format: cell-based, Huh-7.
Data set [3] relates to dengue virus type 2. As to the kind of experiment: Antiviral activity against Dengue virus 2 NGC infected in human HuH7 cells assessed as reduction in virus replication after 48 hrs by renilla luciferase reporter gene assay. In kind it is functional, organism-based. To be noted: Huh-7, 48 h.
In a further data set the target is Genome polyprotein (dengue virus type 2, UniProt P29990). As to the kind of experiment: Inhibition of Dengue virus 2 NS2B-NS3 protease using Abz-Nle-Lys-Arg-Arg-Ser-3-(NO2)Tyr as substrate preincubated for 15 mins followed by addition of substrate measured after 15 mins by fluorescence assay.
Genome polyprotein, sequence (P29990 1346-1475 limits assumed): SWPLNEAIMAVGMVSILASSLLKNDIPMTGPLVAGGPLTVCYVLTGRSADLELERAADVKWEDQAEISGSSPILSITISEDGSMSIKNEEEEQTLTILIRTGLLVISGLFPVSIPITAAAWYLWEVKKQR
Genome polyprotein, sequence (P29990 1476-2093 limits assumed): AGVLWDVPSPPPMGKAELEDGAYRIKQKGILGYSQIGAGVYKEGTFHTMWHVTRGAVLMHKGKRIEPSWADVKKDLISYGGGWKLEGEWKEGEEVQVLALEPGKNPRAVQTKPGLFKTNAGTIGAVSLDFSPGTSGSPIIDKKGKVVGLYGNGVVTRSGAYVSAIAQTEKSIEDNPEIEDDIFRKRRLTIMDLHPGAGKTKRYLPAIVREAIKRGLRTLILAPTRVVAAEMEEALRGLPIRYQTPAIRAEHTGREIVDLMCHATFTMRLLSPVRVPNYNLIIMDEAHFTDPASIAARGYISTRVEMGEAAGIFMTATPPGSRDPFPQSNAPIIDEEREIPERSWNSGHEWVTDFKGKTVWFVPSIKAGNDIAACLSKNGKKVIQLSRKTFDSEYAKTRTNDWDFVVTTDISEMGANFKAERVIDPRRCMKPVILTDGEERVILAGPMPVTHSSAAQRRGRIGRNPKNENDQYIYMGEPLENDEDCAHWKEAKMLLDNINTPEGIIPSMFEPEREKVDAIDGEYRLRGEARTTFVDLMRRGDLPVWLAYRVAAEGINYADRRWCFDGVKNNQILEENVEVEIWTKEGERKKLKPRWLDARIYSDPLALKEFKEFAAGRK
For data set [4], the system named is dengue virus type 2. The experiment in a line: Antiviral activity against Dengue virus 2 NGC infected in human HuH7 cells assessed as reduction in viral titer after 24 hrs. Particulars: Huh-7, 24 h. In kind it is functional.
Data set [5] has as its system dengue virus type 2. The experiment in a line: Antiviral activity against Dengue virus 2 NGC infected in african green monkey Vero cells assessed as inhibition of viral yield after 48 hrs. Format: functional, organism-based.
The subject of the next data set is Junin virus. The experiment in a line: Antiviral activity against Junin virus IV4454 infected in african green monkey Vero cells assessed as inhibition of viral yield after 48 hrs. Format: functional, organism-based. To be noted: Mammarenavirus juninense.
The nature of data set [6]: Selectivity index, ratio of CC50 for BHK21 cells to EC50 for Dengue virus 2 infected in BHK21 cells. Format: toxicity, cell-based. To be noted: hamster, read-out: Ratio CC50/EC50.
Data set [7] has as its system dengue virus type 2. As to the kind of experiment: Antiviral activity against Dengue virus 2 infected in BHK21 cells assessed as reduction in virus replication after 72 hrs by renilla luciferase reporter gene assay. Particulars: BHK-21, 72 h. In kind it is functional, organism-based.
Data set [8] has as its system dengue virus type 2. The experiment in a line: Antiviral activity against Dengue virus 2 3295 infected in BHK21 cells after 48 hrs by CFI assay. Format: functional, organism-based. To be noted: Dengue virus, 3295, BHK-21, 48 h.
Data set [9] relates to dengue virus type 2. As to the kind of experiment: Antiviral activity against Dengue virus 2 infected in BHK21 cells assessed after 3 to 5 days by crystal violet staining based plaque assay. Format: functional, organism-based. Particulars: BHK-21.
Data set [10] concerns dengue virus type 2. The experiment in a line: Antiviral activity against Dengue virus 2 NGC infected in human A549 cells assessed as reduction in virus replication after 48 hrs by renilla luciferase reporter gene assay. In kind it is functional, organism-based. To be noted: A549, 48 h.
Another data set has as its system dengue virus type 4. As to the kind of experiment: Antiviral activity against Dengue virus 4 8124 infected in african green monkey Vero cells assessed as inhibition of viral yield after 48 hrs. Format: functional, organism-based. To be noted: Dengue virus, 8124, Vero.
Another data set has as its system dengue virus type 1. The experiment in a line: Antiviral activity against Dengue virus 1 Hawaii infected in african green monkey Vero cells assessed as inhibition of viral yield after 48 hrs. In kind it is functional, organism-based.
The subject of a further data set is dengue virus type 3. As to the kind of experiment: Antiviral activity against Dengue virus 3 H87 infected in african green monkey Vero cells assessed as inhibition of viral yield after 48 hrs. In kind it is functional, organism-based.
The subject of data set [11] is dengue virus type 2. The experiment in a line: Antiviral activity against Dengue virus 2 16681 infected in human HuH7 cells after 72 hrs by indirect immunofluorescent flow cytometry. Format: functional, organism-based. To be noted: Dengue virus, 16681, Huh-7, 72 h.
For data set [12], the system named is dengue virus type 2. The experiment in a line: Antiviral activity against Dengue virus 2 NGC infected in human K562 cells assessed as inhibition in live viral replication after 48 hrs by plaque assay. Format: functional, organism-based. To be noted: K562, 48 h.
Data set [13] relates to dengue virus type 2. The experiment in a line: Antiviral activity against Dengue virus 2 assessed as inhibition of viral replication. In kind it is functional, organism-based.

Turning to `OC[C@@H]1[C@@H](O)[C@H](O)[C@@H](O)CN1CCCCCC1(O)CCCCC1`, the midpoint of the response in the data set on dengue virus type 2 [1], the EC50, lay at 2000 nM.

On to `CCN(CC)CCO[C@H]1CC[C@@]2(C)C(=CC[C@@H]3[C@@H]2CC[C@]2(C)C(=O)CC[C@@H]32)C1`, for which the CC50 at 48 h in data set [2] amounted to 34.4 µM. Also, in the data set with dengue virus type 2 [3], the EC50 is 2.9 µM. On to `CCCC[C@H](NC(=O)[C@H](CCCCN)NC(=O)[C@H](CCCNC(=N)N)NC(=O)c1ccc(/C=C(\C#N)C(=O)NC2CC2)cc1)C(N)=O`, for which, on Genome polyprotein, the Ki was determined as 4.9 µM. Turning to `CN1CCN(CCOc2cc(OC3CCOCC3)c3c(Nc4c(Cl)ccc5c4OCO5)ncnc3c2)CC1` [SARACATINIB], in the data set with dengue virus type 2 [4], the 90% effect concentration (EC90) was 12.2 µM. Turning to `CO[C@@H]1[C@H]2OC(C)(C)O[C@H]2O[C@@H]1C(=O)c1cnc2sc(C(=O)c3ccc(Br)cc3)cn12`, the EC50 in the data set with dengue virus type 2 [5] was determined as 29.9 µM; with Junin virus, 12 µM. `OC[C@@H]1[C@@H](O)[C@H](O)[C@@H](O)CN1CCCCC1CCCCC1` had an EC50 with dengue virus type 2 [1] of 1500 nM. Consider `Cc1cc(N2C(=O)C(O)=C(C(=O)c3ccc(C)o3)C2c2cc(Cl)cc(Cl)c2)no1` (stereo not drawn), for which the selectivity ratio in data set [6] worked out at 4.5. Besides, the EC50 in the data set on dengue virus type 2 [7] was determined as 36 µM. For the compound `CCCCCCCCCN1C[C@H](O)[C@@H](O)[C@H](O)[C@H]1CO`, the EC50 in the data set with dengue virus type 2 [1] was determined as 1000 nM.

In the data set on dengue virus type 2 [8], `O[C@H]1[C@H](O)[C@@H](O)CN2CC[C@H](O)[C@H]12` [CASTANOSPERMINE] came in with an EC50 of 28 µM.

Take `CCN(CC)CCCC(C)Nc1ccnc2cc(Cl)ccc12` (stereo not drawn) [CHLOROQUINE]: it took 5.04 µM to reach the 90% level with dengue virus type 2 [9] (EC90).

On to `C=C1C(=O)OC(CCCCCCCC)C1C(=O)O` (stereo not drawn), for which the CC50 at 48 h in [2] is more than 100 µM. Moreover, the EC50 in the data set with dengue virus type 2 [3] came to 5.7 µM. In the case of `CC(C)n1c(/C=C/C(O)CC(O)CC(=O)O)c(-c2ccc(F)cc2)c2ccccc21` (stereo not drawn) [FLUVASTATIN], the EC50 in the data set with dengue virus type 2 [10] lay within 1.82 to 8.75 µM. Regarding `C=CCn1c2cc(Cl)ccc2c(=O)c2cccc(OC)c21`, the EC50 in the data set on dengue virus type 2 [5] was 2.5 to 5.5 µM; in the data set on dengue virus type 4, 19.9 µM; in the data set on dengue virus type 1, 8.3 to 15.9 µM; in the data set with Junin virus, 2.5 to 5.5 µM; with dengue virus type 3, 8.3 to 15.9 µM. For `NC(=O)c1ncn([C@@H]2O[C@H](CO)[C@@H](O)[C@H]2O)n1` [RIBAVIRIN], it took 40 µM to reach a half-maximal effect in the data set on dengue virus type 2 [11] (EC50). `C=CCn1c2ccccc2c(=O)c2ccc(Cl)cc21`: the EC50 lay in the range of 2.5 to 5.5 µM in the data set with dengue virus type 2 [5], 8.3 to 15.9 µM in the data set with dengue virus type 1, 2.5 to 5.5 µM with Junin virus and 8.3 to 15.9 µM in the data set on dengue virus type 3. As for `CC(=C\C(=O)O)/C=C(\C)C[C@H](C)CCCC[C@H]1OC(=O)[C@@H]1CO` [ANTIBIOTIC 1233A], the concentration for a half-maximal effect (EC50) with dengue virus type 2 [12] is 4.5 µM. Take `CC(C)(C)OC(=O)NC1C(=O)NC2Cc3ccc(c(Cl)c3)Oc3cc4cc(c3O)Oc3ccc(cc3Cl)C(O)C3NC(=O)C(NC(=O)C4NC(=O)C(NC2=O)c2cc(O)cc(c2)Oc2cc1ccc2O)c1ccc(O)c(c1)-c1c(O)cc(O)cc1C(C(=O)NC12CC4CC(CC(C4)C1)C2)NC3=O` (stereo not drawn): in the data set with dengue virus type 2 [13], the EC50 turned out to be 6.9 µM.
